Laboratory results published in PubChem BioAssay (NCI).
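Briefly, cells in 96-well plates were exposed to five compound concentrations for 48 h, and endpoints were estimated by linear interpolation. GI50 marks 50% less growth. The concentration for full growth arrest is given as TGI.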

How the values were obtained:
Assay in all cases: inhibition of tumour cell growth, NCI panel, 48 h
SK-OV-3 ovarian = test system: SK-OV-3 ovarian
CAKI-1 renal = test system: CAKI-1 renal
HOP-92 NSCLC = test system: HOP-92 NSCLC
A498 renal = test system: A498 renal
CCRF-CEM leukemia = test system: CCRF-CEM leukemia
UACC-62 melanoma = test system: UACC-62 melanoma
HT29 colon = test system: HT29 colon
HS 578T breast = test system: HS 578T breast
T-47D breast = test system: T-47D breast
DU-145 prostate = test system: DU-145 prostate

SMILES: COC12CCC(C(C(=O)c3ccccc3)=C1C(=O)c1ccccc1)C(O)C2 (centres undefined)
- TGI (SK-OV-3 ovarian): > 100 µM
- TGI (CAKI-1 renal): > 100 µM
- TGI (HOP-92 NSCLC): > 100 µM
- TGI (A498 renal): > 100 µM
- TGI (CCRF-CEM leukemia): > 100 µM
- TGI (UACC-62 melanoma): > 100 µM
- TGI (HT29 colon): > 100 µM

SMILES: COc1cc(/C=C\c2ccc(Br)cc2)cc(OC)c1OC
- TGI (SK-OV-3 ovarian): > 100 µM
- TGI (CAKI-1 renal): 18.5 µM
- TGI (HOP-92 NSCLC): > 100 µM
- TGI (CCRF-CEM leukemia): 13.8 µM
- TGI (UACC-62 melanoma): > 100 µM
- TGI (HT29 colon): 15 µM

SMILES: Cc1cc(N(CCCNc2ccnc3cc(Cl)ccc23)Cc2ccc3c(c2)OCO3)nc(N2CCCCC2)n1
- GI50 (SK-OV-3 ovarian): 2.74 µM
- TGI (SK-OV-3 ovarian): 8.46 µM
- GI50 (HOP-92 NSCLC): 1.12 µM
- TGI (HOP-92 NSCLC): 3.49 µM
- GI50 (A498 renal): 2.14 µM
- TGI (A498 renal): 5.11 µM
- GI50 (CCRF-CEM leukemia): 2.92 µM
- TGI (CCRF-CEM leukemia): > 100 µM
- GI50 (HS 578T breast): 1.78 µM
- TGI (HS 578T breast): 4.25 µM
- GI50 (UACC-62 melanoma): 1.91 µM
- TGI (UACC-62 melanoma): 3.64 µM
- GI50 (HT29 colon): 1.2 µM
- TGI (HT29 colon): 3.02 µM
- GI50 (T-47D breast): 1.99 µM
- TGI (T-47D breast): 4.82 µM

SMILES: CC(NC(=O)C(=O)N/N=C1\C[C@@H](c2ccccc2)Nc2ccccc21)c1ccccc1 (some centres undefined)
- TGI (CAKI-1 renal): > 100 µM
- TGI (HOP-92 NSCLC): > 100 µM
- TGI (HT29 colon): > 100 µM

SMILES: O=C1C(=O)N(c2nccs2)C(=O)C(=O)C1c1nc2ccccc2s1
- TGI (SK-OV-3 ovarian): > 100 µM
- TGI (CAKI-1 renal): > 100 µM
- TGI (HOP-92 NSCLC): > 100 µM
- TGI (UACC-62 melanoma): > 100 µM
- TGI (HT29 colon): > 100 µM

SMILES: FC(F)(F)c1cccc2c(SCCc3n[nH]c(=S)o3)ccnc12
- GI50 (SK-OV-3 ovarian): 92.7 µM
- TGI (SK-OV-3 ovarian): > 100 µM
- GI50 (CAKI-1 renal): 45.1 µM
- TGI (CAKI-1 renal): > 100 µM
- GI50 (HOP-92 NSCLC): 28.4 µM
- TGI (HOP-92 NSCLC): 81.6 µM
- GI50 (CCRF-CEM leukemia): 38.6 µM
- TGI (CCRF-CEM leukemia): > 100 µM
- GI50 (HS 578T breast): 30.1 µM
- TGI (HS 578T breast): > 100 µM
- GI50 (UACC-62 melanoma): 16.6 µM
- TGI (UACC-62 melanoma): 34 µM
- GI50 (HT29 colon): 64.2 µM
- TGI (HT29 colon): > 100 µM
- GI50 (DU-145 prostate): 78.4 µM
- TGI (DU-145 prostate): > 100 µM
- GI50 (T-47D breast): 29.3 µM
- TGI (T-47D breast): 93.3 µM

SMILES: O=C1c2ccccc2-c2c1c1ccc([N+](=O)[O-])cc1c(=O)n2CCCNCCO
- GI50 (SK-OV-3 ovarian): 0.525 µM
- TGI (SK-OV-3 ovarian): 2.56 µM
- GI50 (CAKI-1 renal): 0.126 µM
- TGI (CAKI-1 renal): 1.81 µM
- GI50 (HOP-92 NSCLC): 0.0259 µM
- TGI (HOP-92 NSCLC): 0.0899 µM
- GI50 (A498 renal): 1.39 µM
- TGI (A498 renal): 3.75 µM
- GI50 (CCRF-CEM leukemia): 0.023 µM
- TGI (CCRF-CEM leukemia): 1.09 µM
- GI50 (HS 578T breast): 1.11 µM
- TGI (HS 578T breast): 4.39 µM
- GI50 (UACC-62 melanoma): 0.372 µM
- TGI (UACC-62 melanoma): 1.85 µM
- GI50 (HT29 colon): 0.053 µM
- TGI (HT29 colon): 0.82 µM
- GI50 (T-47D breast): 0.042 µM
- TGI (T-47D breast): 1.71 µM

SMILES: CC(C)C(=O)[O-].CC(C)C(=O)[O-].N.N.N.N.[Co+3].[O-][Cl+3]([O-])([O-])[O-]
- GI50 (SK-OV-3 ovarian): > 100 µM
- TGI (SK-OV-3 ovarian): > 100 µM
- GI50 (HOP-92 NSCLC): > 100 µM
- TGI (HOP-92 NSCLC): > 100 µM
- GI50 (A498 renal): > 100 µM
- TGI (A498 renal): > 100 µM
- GI50 (CCRF-CEM leukemia): > 100 µM
- TGI (CCRF-CEM leukemia): > 100 µM
- GI50 (UACC-62 melanoma): > 100 µM
- TGI (UACC-62 melanoma): > 100 µM
- GI50 (HT29 colon): > 100 µM
- TGI (HT29 colon): > 100 µM

SMILES: O=C(N/C(=C\c1ccc(/C=C(\NC(=O)c2ccccc2)c2nc3ccccc3s2)cc1)c1nc2ccccc2s1)c1ccccc1
- TGI (CAKI-1 renal): 28 µM
- TGI (HOP-92 NSCLC): 25.6 µM
- TGI (A498 renal): 32.5 µM
- TGI (CCRF-CEM leukemia): 5.28 µM
- TGI (UACC-62 melanoma): 12 µM
- TGI (HT29 colon): 19.1 µM

SMILES: Cc1ccc(Nc2cc(C)nc(NCCCNc3ccnc4cc(Cl)ccc34)n2)cc1
- GI50 (SK-OV-3 ovarian): 1.57 µM
- TGI (SK-OV-3 ovarian): 3.35 µM
- GI50 (CAKI-1 renal): 1.46 µM
- TGI (CAKI-1 renal): 2.85 µM
- GI50 (HOP-92 NSCLC): 1.16 µM
- TGI (HOP-92 NSCLC): 2.89 µM
- GI50 (A498 renal): 1.06 µM
- TGI (A498 renal): 2.4 µM
- GI50 (CCRF-CEM leukemia): 0.945 µM
- TGI (CCRF-CEM leukemia): 3.79 µM
- GI50 (UACC-62 melanoma): 1.68 µM
- TGI (UACC-62 melanoma): 3.19 µM
- GI50 (HT29 colon): 0.481 µM
- TGI (HT29 colon): 2.06 µM
- GI50 (DU-145 prostate): 1.97 µM
- TGI (DU-145 prostate): 4.14 µM
- GI50 (T-47D breast): 1.75 µM
- TGI (T-47D breast): 4.14 µM

SMILES: OCC(CCc1c[nH]c2ccccc12)c1c[nH]c2ccccc12 (centres undefined)
- TGI (SK-OV-3 ovarian): 98.5 µM
- TGI (CAKI-1 renal): 77.4 µM
- TGI (HOP-92 NSCLC): 32.7 µM
- TGI (A498 renal): 30.2 µM
- TGI (HS 578T breast): 48.6 µM
- TGI (UACC-62 melanoma): 27 µM
- TGI (HT29 colon): 30.7 µM
- TGI (DU-145 prostate): 32.7 µM
- TGI (T-47D breast): 35.6 µM

SMILES: CC(=O)OC1CCC2C(=CCC3C2(C)C(=O)CC2(C)C(C4(C)OC(C(C)C)=CC4=O)C(O)CC32C)C1(C)C (centres undefined)
- TGI (SK-OV-3 ovarian): > 100 µM
- TGI (CAKI-1 renal): > 100 µM
- TGI (HOP-92 NSCLC): > 100 µM
- TGI (A498 renal): > 100 µM
- TGI (CCRF-CEM leukemia): 56.5 µM
- TGI (UACC-62 melanoma): 41.7 µM
- TGI (HT29 colon): 32.3 µM

SMILES: CC(C)CC12CC3CCC(CNC1=O)C32C (centres undefined)
- TGI (SK-OV-3 ovarian): > 100 µM
- TGI (CAKI-1 renal): > 100 µM
- TGI (HOP-92 NSCLC): > 100 µM
- TGI (A498 renal): > 100 µM
- TGI (CCRF-CEM leukemia): > 100 µM
- TGI (UACC-62 melanoma): > 100 µM
- TGI (HT29 colon): > 100 µM

SMILES: COC(=O)[C@H](C)NC(=O)[C@@H](OC)[C@@H]1Cc2cc3cc(OC4CC(OC5CC(O)C(O)C(C)O5)C(O)C(C)O4)c(C)c(O)c3c(O)c2C(=O)[C@H]1OC1CC(OC2CC(OC3CC(C)(O)C(O)C(C)O3)C(O)C(C)O2)C(O)C(C)O1 (some centres undefined)
- GI50 (SK-OV-3 ovarian): 0.359 µM
- TGI (SK-OV-3 ovarian): > 50 µM
- GI50 (CAKI-1 renal): 0.129 µM
- TGI (CAKI-1 renal): 2.02 µM
- GI50 (HOP-92 NSCLC): 0.115 µM
- TGI (HOP-92 NSCLC): 7.1 µM
- GI50 (CCRF-CEM leukemia): 0.147 µM
- TGI (CCRF-CEM leukemia): > 50 µM
- GI50 (HS 578T breast): 0.0983 µM
- TGI (HS 578T breast): 2.17 µM
- GI50 (UACC-62 melanoma): 0.0417 µM
- TGI (UACC-62 melanoma): 0.171 µM
- GI50 (HT29 colon): 0.117 µM
- TGI (HT29 colon): > 50 µM
- GI50 (DU-145 prostate): 0.146 µM
- TGI (DU-145 prostate): > 50 µM
- GI50 (T-47D breast): 0.143 µM
- TGI (T-47D breast): > 50 µM

SMILES: CC1(C(=O)O)CCOc2ccccc21 (centres undefined)
- TGI (CAKI-1 renal): > 100 µM
- TGI (HOP-92 NSCLC): > 100 µM
- TGI (A498 renal): > 100 µM
- TGI (CCRF-CEM leukemia): > 100 µM
- TGI (UACC-62 melanoma): > 100 µM
- TGI (HT29 colon): > 100 µM

SMILES: CCOC(=O)c1ccc(N2C(=O)Cc3ccccc3C2=O)cc1
- TGI (SK-OV-3 ovarian): > 100 µM
- TGI (UACC-62 melanoma): > 100 µM
- TGI (HT29 colon): > 100 µM

SMILES: CS/C(c1ccccc1)=[N+](\[O-])Cc1ccccc1
- TGI (SK-OV-3 ovarian): > 100 µM
- TGI (CAKI-1 renal): > 100 µM
- TGI (HOP-92 NSCLC): > 100 µM
- TGI (A498 renal): > 100 µM
- TGI (CCRF-CEM leukemia): > 100 µM
- TGI (UACC-62 melanoma): > 100 µM
- TGI (HT29 colon): > 100 µM

SMILES: COc1ccc(-c2ccc(-c3ccc(C(=N)N)cn3)o2)cc1Cl
- GI50 (SK-OV-3 ovarian): 10.6 µM
- TGI (SK-OV-3 ovarian): 22.8 µM
- GI50 (CAKI-1 renal): 6.57 µM
- TGI (CAKI-1 renal): 19.8 µM
- GI50 (HOP-92 NSCLC): 1.12 µM
- TGI (HOP-92 NSCLC): 2.44 µM
- GI50 (A498 renal): 2.05 µM
- TGI (A498 renal): 5.57 µM
- GI50 (CCRF-CEM leukemia): 1.42 µM
- TGI (CCRF-CEM leukemia): 3.78 µM
- GI50 (HS 578T breast): 2.08 µM
- TGI (HS 578T breast): 6.18 µM
- GI50 (HT29 colon): 1.87 µM
- TGI (HT29 colon): 3.78 µM
- GI50 (DU-145 prostate): 3.45 µM
- TGI (DU-145 prostate): 11.3 µM

SMILES: CCOC(=O)C1=C(Nc2ccc(Br)cc2)OC/C1=N\NC(=O)c1ccccc1O
- TGI (SK-OV-3 ovarian): > 67.7 µM
- TGI (CAKI-1 renal): > 71.1 µM
- TGI (A498 renal): 99.3 µM
- TGI (CCRF-CEM leukemia): 34.3 µM
- TGI (UACC-62 melanoma): 8.63 µM
- TGI (HT29 colon): > 100 µM

SMILES: CCCCn1c2ccccc2c2ccc3c(c21)C(=O)C=CC3=O
- TGI (SK-OV-3 ovarian): > 100 µM
- TGI (CAKI-1 renal): > 100 µM
- TGI (HOP-92 NSCLC): > 100 µM
- TGI (A498 renal): > 100 µM
- TGI (UACC-62 melanoma): > 100 µM
- TGI (HT29 colon): 3.46 µM
